The values below come from patent publication US10851064B2, “ACSS2 inhibitors and methods of use thereof” (METABOMED LTD., priority 2017, dated 2020).

Broadly, the IC50 is the point on the concentration scale where inhibition reaches its midpoint.

Values joined by “and” are separate entries in the source; they are usually repeats but may differ in a detail not shown here. Identical values can stand only once.

This experiment addresses ACSS2 (Homo sapiens, UniProt Q9NR19). Nature of the experiment: biochemical.
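Note: Cell-free human ACSS2 enzyme reaction with acetate, CoA and ATP, 90 min at 37 C, coupled to pyrophosphatase, phosphate release detected by Biomol Green absorbance at 620 nm.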

Chain of ACSS2 (Q9NR19 whole entry): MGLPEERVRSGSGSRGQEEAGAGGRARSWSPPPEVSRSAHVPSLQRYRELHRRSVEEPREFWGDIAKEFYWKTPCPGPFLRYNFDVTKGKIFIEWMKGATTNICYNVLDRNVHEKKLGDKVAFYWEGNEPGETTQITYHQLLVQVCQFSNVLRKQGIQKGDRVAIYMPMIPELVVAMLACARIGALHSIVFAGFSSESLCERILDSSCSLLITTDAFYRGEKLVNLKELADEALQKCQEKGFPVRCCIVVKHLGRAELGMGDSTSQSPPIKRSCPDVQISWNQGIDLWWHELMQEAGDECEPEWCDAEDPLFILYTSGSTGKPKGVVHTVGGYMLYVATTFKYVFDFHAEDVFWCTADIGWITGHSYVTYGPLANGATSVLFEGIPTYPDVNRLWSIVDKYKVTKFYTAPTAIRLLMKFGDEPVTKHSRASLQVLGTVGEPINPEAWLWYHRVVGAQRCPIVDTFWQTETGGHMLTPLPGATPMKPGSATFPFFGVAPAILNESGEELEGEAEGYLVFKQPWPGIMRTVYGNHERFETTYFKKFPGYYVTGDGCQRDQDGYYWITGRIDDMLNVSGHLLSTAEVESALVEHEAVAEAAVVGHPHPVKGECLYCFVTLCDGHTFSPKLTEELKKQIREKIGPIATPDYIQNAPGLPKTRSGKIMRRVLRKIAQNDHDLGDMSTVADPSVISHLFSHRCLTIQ

Turning to `CC1=NN(c2ccccc2)C(=O)C1C(=O)Nc1cccc(O)c1` (stereo not shown) [compound 222, N-(3-hydroxyphenyl)-3-methyl-5-oxo-1-phenyl-4,5-dihydro-1H-pyrazole-4-carboxamide], the IC50 lay in the range of 1000 to 100000 nM. In turn, `CC1=NN(c2ccc(OC(F)F)cc2)C(=O)C1C(=O)Nc1cccc2[nH]ccc12` (stereo not shown) [compound 350] displayed an IC50 of 100 to 1000 nM. The figure for `CC1=NN(c2ccc(OC(F)F)c(-c3cncnc3)c2)C(=O)C1C(=O)Nc1cccc(C(C)(F)F)c1` (stereo not shown) [compound 449] is 0.01 to 6 nM. The result for `CC1=NN(c2ccccc2)C(=O)C1C(=O)Nc1cccnc1` (stereo not shown) [compound 191, 3-methyl-5-oxo-1-phenyl-N-(pyridin-3-yl)-4,5-dihydro-1H-pyrazole-4-carboxamide] reads 1000 to 100000 nM; that for `CC1=NN(c2ccc(OC(F)F)cc2)C(=O)C1C(=O)N(C)c1cc(Cl)c(F)c(Cl)c1` (stereo not shown) [compound 391], 100 to 1000 nM; that for `COc1ccc(N2N=C(C)C(C(=O)NCc3ccccc3)C2=O)cc1` (stereo not shown) [compound 358], 100 to 1000 nM.

As to `CCC(F)(F)c1cccc(NC(=O)C2C(=O)N(c3ccc(OC)c(-c4ccccc4)c3)N=C2C)c1` (stereo not shown) [compound 368], the IC50 lay within 0.01 to 6 nM.

In turn, `CC1=NN(c2cc(C)cc(-c3ncco3)c2)C(=O)C1C(=O)Nc1cccc(C(C)(F)F)c1` (stereo not shown) [compound 420] gave an IC50 of 0.01 to 6 nM. Regarding `CC1=NN(c2ccc(OC(F)F)cc2)C(=O)C1C(=O)Nc1cccc2cc[nH]c12` (stereo not shown) [compound 346], the IC50 lay within 100 to 1000 nM. Take `CC1=NN(c2ccc(OC(F)F)c(-c3ccccn3)c2)C(=O)C1C(=O)Nc1cccc(C(C)(F)F)c1` (stereo not shown) [compound 438]: the IC50 lay in the range of 0.01 to 6 nM.

`CC1=NN(c2ccc(OC(F)F)c(-c3cnccn3)c2)C(=O)C1C(=O)Nc1cccc(C(C)(F)F)c1` (stereo not shown) [compound 437]: the IC50 lay in the range of 0.01 to 6 nM.

Take `COc1ccc(N2N=C(C)C(C(=O)Nc3cccc(C(C)(F)F)c3)C2=O)cc1-c1nnc(C)[nH]1` (stereo not shown) [compound 385]: the IC50 was in the range of 6 to 100 nM. The result for `CC1=NN(c2ccccc2)C(=O)C1C(=O)Nc1ccccc1` (stereo not shown) [compound 182, 3-methyl-5-oxo-N,1-diphenyl-4,5-dihydro-1H-pyrazole-4-carboxamide] reads 1000 to 100000 nM; that for `CC(=O)c1cc(NC(=O)C2C(=O)N(c3ccc(OC(F)F)cc3)N=C2C)c2[nH]ccc2c1` (stereo not shown) [compound 408], 100 to 1000 nM. The figure for `CC1=NN(c2cccnc2)C(=O)C1C(=O)Nc1ccccc1` (stereo not shown) [compound 195, 3-methyl-5-oxo-N-phenyl-1-(pyridin-3-yl)-4,5-dihydro-1H-pyrazole-4-carboxamide] is > 100000 nM; for `COc1cc(N2N=C(C)C(C(=O)Nc3cccc(C(C)(F)F)c3)C2=O)ccc1OC(F)F` (stereo not shown) [compound 454] it is 0.01 to 6 nM; for `COc1ccc(N2N=C(C)C(C(=O)Nc3cccc(C(C)(F)F)c3)C2=O)cc1-c1ccncc1` (stereo not shown) [compound 431] it is 0.01 to 6 nM.

`CCC(F)(F)c1cccc(NC(=O)C2C(=O)N(c3ccc4ccn(C(C)C)c4c3)N=C2C)c1` (stereo not shown) [compound 360] gave a half-inhibitory concentration (IC50) of 0.01 to 6 nM. Compound `CCc1cc(NC(=O)C2C(=O)N(c3ccccc3)N=C2C)cs1` (stereo not shown) [compound 284] gave an IC50 of 100 to 1000 nM. The figure for `COc1ccc(N2N=C(C)C(C(=O)Nc3cccc(C(C)(F)F)c3)C2=O)cc1-c1nnc(C)o1` (stereo not shown) [compound 430] is 0.01 to 6 nM; for `CC1=NN(c2ccccc2)C(=O)C1C(=O)Nc1cccc(-c2ccccc2)c1` (stereo not shown) [compound 102, N-([1,1′-biphenyl]-3-yl)-3-methyl-5-oxo-1-phenyl-4,5-dihydro-1H-pyrazole-4-carboxamide] it is 100 to 1000 nM; for `CC1=NN(c2ccc3ccn(Cc4ccccc4)c3c2)C(=O)C1C(=O)Nc1cccc(C(C)(F)F)c1` (stereo not shown) [compound 367] it is 0.01 to 6 nM. Consider `CC1=NN(c2ccccc2)C(=O)C1C(=O)Nc1ccc(O)cc1` (stereo not shown) [compound 205, N-(4-hydroxyphenyl)-3-methyl-5-oxo-1-phenyl-4,5-dihydro-1H-pyrazole-4-carboxamide], for which the IC50 fell in the range of 1000 to 100000 nM. The result for `CC1=NN(c2cccc(Br)c2)C(=O)C1C(=O)Nc1cccc(C(C)(F)F)c1` (stereo not shown) [compound 404] reads 0.01 to 6 nM; that for `CC1=NN(c2ccc(OC(F)F)cc2)C(=O)C1C(=O)Nc1cccc(C(F)(F)C(C)C)c1` (stereo not shown) [compound 362], 6 to 100 nM; that for `CC1=NN(c2ccc(Cc3ccccc3)c(-c3ccccc3)c2)C(=O)C1C(=O)Nc1cccc(C(C)(F)F)c1` (stereo not shown) [compound 375], 0.01 to 6 nM. Compound `CC1=NN(c2ccccc2)C(=O)C1C(=O)Nc1cccc(C(C)C)c1` (stereo not shown) [compound 100, N-(3-isopropylphenyl)-3-methyl-5-oxo-1-phenyl-4,5-dihydro-1H-pyrazole-4-carboxamide] gave an IC50 of 100 to 1000 nM. Compound `CC1=NN(c2ccc(OC(F)F)c(-c3ccncc3)c2)C(=O)C1C(=O)Nc1cccc(C(C)(F)F)c1` (stereo not shown) [compound 450] displayed an IC50 of 0.01 to 6 nM. As for `CC1=NN(c2ccc(C(F)(F)F)cc2)C(=O)C1C(=O)Nc1cccc(-c2cnccn2)c1` (stereo not shown) [compound 150, 3-methyl-5-oxo-N-(3-(pyrazin-2-yl)phenyl)-1-(4-(trifuoromethyl)phenyl)-4,5-dihydro-1H-pyrazole-4-carboxamide], the IC50 fell in the range of 6 to 100 nM. `CC1=NN(c2ccc(S(=O)(=O)N(C)C)cc2)C(=O)C1C(=O)Nc1cccc(-c2ncc[nH]2)c1` (stereo not shown) [compound 173, N-(3-(1H-imidazol-2-yl)phenyl)-1-(4-(N,N-dimethylsulfamoyl)phenyl)-3-methyl-5-oxo-4,5-dihydro-1H-pyrazole-4-carboxamide] showed an IC50 of 100 to 1000 nM. Turning to `COCc1cccc(NC(=O)C2C(=O)N(c3ccccc3)N=C2C)c1` (stereo not shown) [compound 103, N-(3-(methoxymethyl)phenyl)-3-methyl-5-oxo-1-phenyl-4,5-dihydro-1H-pyrazole-4-carboxamide], the IC50 is 100 to 1000 nM and 6 to 100 nM. The figure for `CC1=NN(c2ccccc2)C(=O)C1C(=O)Nc1cccc(CC(F)(F)F)c1` (stereo not shown) [compound 161, 3-methyl-5-oxo-1-phenyl-N-(3-(2,2,2-trifluoroethyl)phenyl)-4,5-dihydro-1H-pyrazole-4-carboxamide] is 6 to 100 nM; for `CCCCCc1cccc(NC(=O)C2C(=O)N(c3ccccc3)N=C2C)c1` (stereo not shown) [compound 118, 3-methyl-5-oxo-N-(3-pentylphenyl)-1-phenyl-4,5-dihydro-1H-pyrazole-4-carboxamide] it is 1000 to 100000 nM.

In turn, `CC1=NN(c2ccc(Cc3ccccc3)c(-c3cccnc3)c2)C(=O)C1C(=O)Nc1cccc(C(C)(F)F)c1` (stereo not shown) [compound 374] returned an IC50 of 0.01 to 6 nM. The figure for `CC1=NN(c2ccccc2)C(=O)C1C(=O)Nc1cccc(CN(C)C)c1` (stereo not shown) [compound 131, N-(3-((dimethylamino)methyl)phenyl)-3-methyl-5-oxo-1-phenyl-4,5-dihydro-1H-pyrazole-4-carboxamide] is 1000 to 100000 nM; for `CC1=NN(c2ccccc2)C(=O)C1C(=O)Nc1cccc(C(=O)C(F)(F)F)c1` (stereo not shown) [compound 152, 3-methyl-5-oxo-1-phenyl-N-(3-(2,2,2-trifluoroacetyl)phenyl)-4,5-dihydro-1H-pyrazole-4-carboxamide] it is 1000 to 100000 nM; for `N#Cc1ccc(OCCNC(=O)c2cccc(C(O)CO)c2)cc1` (stereo not shown) [compound 179] it is 1000 to 100000 nM. The figure for `COc1cccc(NC(=O)C2C(=O)N(c3ccccc3)N=C2C)c1` (stereo not shown) [compound 211, N-(3-methoxyphenyl)-3-methyl-5-oxo-1-phenyl-4,5-dihydro-1H-pyrazole-4-carboxamide] is 6 to 100 nM; for `CC1=NN(c2ccc3[nH]ccc3c2)C(=O)C1C(=O)Nc1cccc(C(C)(F)F)c1` (stereo not shown) [compound 419] it is 0.01 to 6 nM. Turning to `CCCc1cc(-c2ccccc2)cc(N2N=C(C)C(C(=O)Nc3cccc(C(C)(F)F)c3)C2=O)c1` (stereo not shown) [compound 400], the IC50 is 6 to 100 nM. For `CC1=NN(C2CCN(C)CC2)C(=O)C1C(=O)Nc1ccccc1` (stereo not shown) [compound 221, 3-methyl-1-(1-methylpiperidin-4-yl)-5-oxo-N-phenyl-4,5-dihydro-1H-pyrazole-4-carboxamide], the IC50 was > 100000 nM.

As to `COc1ccc(N2N=C(C)C(C(=O)Nc3cccc(C(C)(F)F)c3)C2=O)c(F)c1` (stereo not shown) [compound 451], the IC50 fell in the range of 0.01 to 6 nM.

For `CC1=NN(c2ccc(C3COC3)cc2)C(=O)C1C(=O)Nc1cccc(C(C)(F)F)c1` (stereo not shown) [compound 348], the IC50 was 6 to 100 nM.

Turning to `CC1=NN(c2ccccc2)C(=O)C1C(=O)NC1CCOC1` (stereo not shown) [compound 106, 3-methyl-5-oxo-1-phenyl-N-(tetrahydrofuran-3-yl)-4,5-dihydro-1H-pyrazole-4-carboxamide], the IC50 was > 100000 nM.

`CCCOc1ccc(N2N=C(C)C(C(=O)Nc3cccc(CC)c3)C2=O)cc1` (stereo not shown) [compound 158, N-(3-ethylphenyl)-3-methyl-5-oxo-1-(4-propoxyphenyl)-4,5-dihydro-1H-pyrazole-4-carboxamide] showed an IC50 of 6 to 100 nM.

`CC1=NN(c2ccc(OC3CCCC3)cc2)C(=O)C1C(=O)Nc1cccc(C(C)(F)F)c1` (stereo not shown) [compound 446] displayed an IC50 of 0.01 to 6 nM.

For the compound `CC1=NN(c2cc(-c3ccccc3)cc(-c3ccsc3)c2)C(=O)C1C(=O)Nc1cccc(C(C)(F)F)c1` (stereo not shown) [compound 372], the IC50 was in the range of 0.01 to 6 nM. On to `COc1ccc(N2N=C(C)C(C(=O)Nc3cccc(-c4ncco4)c3)C2=O)cn1` (stereo not shown) [compound 245], for which the IC50 was 6 to 100 nM. `CC1=NN(c2cc(Cc3ccccc3OCc3ccccc3)cc(-c3cccnc3)c2)C(=O)C1C(=O)Nc1cccc(C(C)(F)F)c1` (stereo not shown) [compound 365] gave an IC50 of 6 to 100 nM. For `CC1=NN(c2ccncc2)C(=O)C1C(=O)Nc1cccc(-c2cnccn2)c1` (stereo not shown) [compound 232], the IC50 is 6 to 100 nM. The result for `CC1=NN(c2cc(-c3ccccc3)cc(-c3cccnc3)c2)C(=O)C1C(=O)Nc1cccc(C(C)(F)F)c1` (stereo not shown) [compound 390] reads 0.01 to 6 nM.

Turning to `COc1ccc(N2N=C(C)C(C(=O)Nc3cccc(C(C)(F)F)c3)C2=O)c(C)c1` (stereo not shown) [compound 302], the IC50 was 100 to 1000 nM. For the compound `CC1=NN(c2ccccc2)C(=O)C1C(=O)Nc1cccc(-c2ccon2)c1` (stereo not shown) [compound 239], the IC50 was 1000 to 100000 nM. The result for `CCc1ccc(NC(=O)C2C(=O)N(c3ccccc3)N=C2C)s1` (stereo not shown) [compound 260] reads 100 to 1000 nM; that for `COc1ccc(N2N=C(C)C(C(=O)Nc3cccc(C(C)(F)F)c3)C2=O)cc1-c1ccc(-c2ccccc2)cc1` (stereo not shown) [compound 396], 6 to 100 nM.
